Literature values, collected in patent US20190038750A1, “TRIPLE ANTIBIOTIC CATIONIC OINTMENT” (priority 2017, published 2019).

Legend:
[1] = in vivo
bacteria = settings: very low concentrations
[2] = tested on: Staphylococcus aureus (also the methicillin-resistant type, MRSA)
[3] = tested on: Aspergillus brasiliensis (mold)
[4] = tested on: vancomycin-resistant enterococci
[5] = tested on: Klebsiella pneumoniae (carbapenem-resistant enterobacteriaceae)

## benzalkonium chloride
[1]
  burning sensation: does not cause a burning sensation

## Polyaminopropylbiguanide [PAPB]
bacteria
  bactericidal concentration: 10 mg/1
fungus
  fungicidal: fungicidal

## polyhexamethylenebiguanide [PHMB]
Pseudomonas aeruginosa
  effective against Pseudomonas aeruginosa: effective
[2]
  effective against Staphylococcus aureus (also MRSA): effective
Escherichia coli
  effective against Escherichia coli: effective
Candida albicans (yeast)
  effective against Candida albicans: effective
[3]
  effective against Aspergillus brasiliensis: effective
[4]
  effective against vancomycin-resistant enterococci: effective
[5]
  effective against Klebsiella pneumoniae (carbapenem-resistant): effective
